According to patent US4317768A, “Dihydropyridine derivatives as stabilizers for vinyl chloride polymers” (priority 1977, dated 1982):

Assays:
[1] = Antioxidant power on a polyvinyl chloride resin, Metrastat oven, 210° C.
Procedure: By direct comparison, on a polyvinyl chloride resin, of the antioxidant power of Compound 1 of the invention and that of an antioxidant known as one of the most valuable and frequently used in polyvinyl chloride, namely 2,6-diterbutyl-4-methyl-phenol.
The antioxidant power of Compound 1 was compared to that of 2,6-diterbutyl-4-methyl-phenol (Compound 2) by using the following resin:
The same trials were carried out in a Metrastat oven at 210° C.

[2] = Static thermostability (GARDNER method), rigid PVC sheets, 185° C., equimolecular quantities; details: 1.55×10^-3 mol
How it was run: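 Stabilizer at 1.55×10^-3 mol (equimolar with 2-phenyl-indole) mixed with PVC and other usual ingredients, calendered at 160° C. into rigid sheets. Sheets oven-aged at 185° C., sampled every 6 min to 24 min, then every 3 min to 42 min or carbonization. Coloration scored on the GARDNER scale.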

## C=CCOC(=O)C1=C(C)NC(C)=C(C(=O)OCC=C)C1 [Compound 1, 2,6-Dimethyl-3,5-dicarboallyloxy-1,4-dihydropyridine]
[1]; 0.05 part
  time of burning (B): 40 '
[1]; 0.05 part, 0 to 10 min
  coloration, GARDNER scale: 1
[1]; 0.05 part, 10 to 20 min
  coloration, GARDNER scale: 1
[1]; 0.05 part, 20 to 25 min
  coloration, GARDNER scale: 1
[1]; 0.05 part, 25 to 30 min
  coloration, GARDNER scale: 1
[1]; 0.05 part, 35 to 40 min
  coloration, GARDNER scale: > 10
[1]; 0.1 part
  time of burning (B): 38 '
[1]; 0.1 part, 0 to 10 min
  coloration, GARDNER scale: 1
[1]; 0.1 part, 10 to 20 min
  coloration, GARDNER scale: 1
[1]; 0.1 part, 20 to 25 min
  coloration, GARDNER scale: 1
[1]; 0.1 part, 25 to 30 min
  coloration, GARDNER scale: 1
[1]; 0.1 part, 35 to 40 min
  coloration, GARDNER scale: < 10
[1]; 0.2 part
  time of burning (B): 39 '
[1]; 0.2 part, 0 to 10 min
  coloration, GARDNER scale: 1
[1]; 0.2 part, 10 to 20 min
  coloration, GARDNER scale: 1
[1]; 0.2 part, 20 to 25 min
  coloration, GARDNER scale: 1
[1]; 0.2 part, 25 to 30 min
  coloration, GARDNER scale: 1
[1]; 0.2 part, 35 to 40 min
  coloration, GARDNER scale: < 9
[1]; 0.3 part
  time of burning (B): 39 '
[1]; 0.3 part, 0 to 10 min
  coloration, GARDNER scale: 1
[1]; 0.3 part, 10 to 20 min
  coloration, GARDNER scale: 1
[1]; 0.3 part, 20 to 25 min
  coloration, GARDNER scale: 1
[1]; 0.3 part, 25 to 30 min
  coloration, GARDNER scale: 1
[1]; 0.3 part, 35 to 40 min
  coloration, GARDNER scale: < 9
[1]; 0.4 part
  time of burning (B): 38 '
[1]; 0.4 part, 0 to 10 min
  coloration, GARDNER scale: 1
[1]; 0.4 part, 10 to 20 min
  coloration, GARDNER scale: 1
[1]; 0.4 part, 20 to 25 min
  coloration, GARDNER scale: 1
[1]; 0.4 part, 25 to 30 min
  coloration, GARDNER scale: 1
[1]; 0.5 part
  time of burning (B): 38 '
[1]; 0.5 part, 0 to 10 min
  coloration, GARDNER scale: 1
[1]; 0.5 part, 10 to 20 min
  coloration, GARDNER scale: 1
[1]; 0.5 part, 20 to 25 min
  coloration, GARDNER scale: 1
[1]; 0.5 part, 25 to 30 min
  coloration, GARDNER scale: 1
[1]; 1.0 part
  time of burning (B): 37 '
[1]; 1.0 part, 0 to 10 min
  coloration, GARDNER scale: 1
[1]; 1.0 part, 10 to 20 min
  coloration, GARDNER scale: 1
[1]; 1.0 part, 20 to 25 min
  coloration, GARDNER scale: 1
[1]; 1.0 part, 25 to 30 min
  coloration, GARDNER scale: 1
[1]; 210° C.
  antioxidant power, Compound 1 vs Compound Z, in words: markedly superior to Compound Z

## CC1=C(C(=O)OCc2ccccc2)CC(C(=O)OCc2ccccc2)=C(C)N1 [Compound 21, 2,6-Dimethyl-3,5-dicarbobenzyloxy-1,4-dihydropyridine]
[2]; 0 min
  coloration, GARDNER scale: 1
[2]; 6 min
  coloration, GARDNER scale: 1
[2]; 12 min
  coloration, GARDNER scale: 1
[2]; 18 min
  coloration, GARDNER scale: 4
[2]; 24 min
  coloration, GARDNER scale: 6
[2]; 27 min
  coloration, GARDNER scale: 8
[2]; 30 min
  coloration, GARDNER scale: 11
[2]; 33 min
  coloration, GARDNER scale: 15
[2]; 36 min
  coloration, GARDNER scale: Burnt
